# Columns and labels:
# [1] = test system: ADHD; settings: in vivo; cited from earlier work
# [2] = test system: ADHD patients with insomnia disorders; assay: sleep induction by melatonin in ADHD patients with insomnia disorders first treated with methyl phenidate; assay type: in vivo, human; settings: pure melatonin 2.5 mg
# [3] = test system: patients with major depressive disorder; settings: cited from earlier work
# [4] = test system: patients who had been previously treated with methyl phenidate; settings: melatonin 3 mg; cited from earlier work
# [5] = test system: children with delayed sleep phase syndrome; settings: 2.5 to 7.5 mg PO once daily before expected bedtime; cited from earlier work
# [6] = test system: ADHD patients; settings: versus 54% of ADHD cases with concomitant insomnia; cited from earlier work
# [7] = test system: dopamine levels; settings: normal therapeutic doses; healthy, adult men; cited from earlier work
smiles,measurement,setting,value
Clc1cccc(Cl)c1N=C1NCCN1 [clonidine],efficacy in treating ADHD,[1],effective in treating ADHD
"COc1ccc2[nH]cc(CCNC(C)=O)c2c1 [melatonin, N-acetyl-5-methoxytryptamine]",activity as a sleep-inducing agent,[2],active as a sleep-inducing agent
same,sleep quality scores,"[3]; concomitant slow-release melatonin at 9 pm versus fluoxetine alone, 4 weeks",significantly improved sleep quality scores
same,need for additional sleep medications,[3]; concomitant slow-release melatonin with fluoxetine,avoided the need for additional sleep medications
same,time for insomnia,[4],significant reduction in the time for insomnia
same,average onset of sleep after melatonin administration,[5],≤ 1 h
COC(=O)C(c1ccccc1)C1CCCCN1 (centres unmarked) [methylphenidate],problems relating to insomnia in treated ADHD patients,[6],64%
same,dopamine levels (PET),[7],increased their dopamine levels
